Assay results as given in PMC12136037, “Type II kinase inhibitors that target Parkinson’s disease–associated LRRK2” (Science Advances, 2025).

Legend:
Assay in all cases: DSF 100 kinase selectivity screen;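 also: compound tested at 20 µM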
Type in all cases: binding
[1] = biological target: T1, ~100 representative kinases (Homo sapiens, UniProt P55201); settings: Protein BRPF1; average of three replicates
T1 construct: Recombinant protein kinase domains with a concentration of 2 μM
T1 sequence (P55201 1-1214): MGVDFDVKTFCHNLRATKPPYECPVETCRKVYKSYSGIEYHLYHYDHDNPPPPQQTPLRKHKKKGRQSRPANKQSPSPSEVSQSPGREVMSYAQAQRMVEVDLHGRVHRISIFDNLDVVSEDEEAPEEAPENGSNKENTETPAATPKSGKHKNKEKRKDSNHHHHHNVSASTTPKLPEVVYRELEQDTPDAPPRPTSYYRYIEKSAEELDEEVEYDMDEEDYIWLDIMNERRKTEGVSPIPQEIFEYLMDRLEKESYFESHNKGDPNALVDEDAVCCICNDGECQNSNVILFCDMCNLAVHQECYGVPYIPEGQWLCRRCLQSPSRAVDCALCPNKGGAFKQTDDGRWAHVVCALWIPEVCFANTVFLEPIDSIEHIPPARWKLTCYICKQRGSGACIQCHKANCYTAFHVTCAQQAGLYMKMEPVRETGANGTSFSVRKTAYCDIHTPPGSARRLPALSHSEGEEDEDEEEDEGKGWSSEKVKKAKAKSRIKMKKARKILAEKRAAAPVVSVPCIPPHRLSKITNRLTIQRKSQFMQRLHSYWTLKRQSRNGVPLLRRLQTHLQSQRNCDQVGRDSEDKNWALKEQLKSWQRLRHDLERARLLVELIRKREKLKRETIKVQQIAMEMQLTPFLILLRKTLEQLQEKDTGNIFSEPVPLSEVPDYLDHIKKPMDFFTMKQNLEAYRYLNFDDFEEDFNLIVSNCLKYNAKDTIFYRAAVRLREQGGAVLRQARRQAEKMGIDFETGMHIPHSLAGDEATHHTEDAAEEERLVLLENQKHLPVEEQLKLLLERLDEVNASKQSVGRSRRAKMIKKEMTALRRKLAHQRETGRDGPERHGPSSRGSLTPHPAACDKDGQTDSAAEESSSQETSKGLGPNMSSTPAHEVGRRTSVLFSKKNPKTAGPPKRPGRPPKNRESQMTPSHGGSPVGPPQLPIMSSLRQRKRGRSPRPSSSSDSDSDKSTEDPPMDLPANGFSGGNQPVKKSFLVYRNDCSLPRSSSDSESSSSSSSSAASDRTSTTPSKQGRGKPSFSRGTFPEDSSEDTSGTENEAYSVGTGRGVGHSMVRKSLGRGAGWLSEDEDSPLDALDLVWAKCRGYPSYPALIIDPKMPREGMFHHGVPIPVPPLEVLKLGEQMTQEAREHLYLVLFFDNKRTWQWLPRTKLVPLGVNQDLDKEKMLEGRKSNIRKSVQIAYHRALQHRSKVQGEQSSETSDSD
In short: (§1)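 Each kinase domain, at 2 μM, is mixed with 20 μM test compound and SYPRO Orange in Hepes (20 mM, pH 7.5) with 500 mM NaCl. Temperature is then raised at 3°C/min and fluorescence-monitored unfolding yields the melting temperature change, ΔTm in degrees Celsius.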

[2] = biological target: T2, ~100 representative kinases (Homo sapiens, UniProt O00444); settings: protein PLK4; average of three replicates
T2 construct: Recombinant protein kinase domains with a concentration of 2 μM
T2 sequence (O00444 1-970): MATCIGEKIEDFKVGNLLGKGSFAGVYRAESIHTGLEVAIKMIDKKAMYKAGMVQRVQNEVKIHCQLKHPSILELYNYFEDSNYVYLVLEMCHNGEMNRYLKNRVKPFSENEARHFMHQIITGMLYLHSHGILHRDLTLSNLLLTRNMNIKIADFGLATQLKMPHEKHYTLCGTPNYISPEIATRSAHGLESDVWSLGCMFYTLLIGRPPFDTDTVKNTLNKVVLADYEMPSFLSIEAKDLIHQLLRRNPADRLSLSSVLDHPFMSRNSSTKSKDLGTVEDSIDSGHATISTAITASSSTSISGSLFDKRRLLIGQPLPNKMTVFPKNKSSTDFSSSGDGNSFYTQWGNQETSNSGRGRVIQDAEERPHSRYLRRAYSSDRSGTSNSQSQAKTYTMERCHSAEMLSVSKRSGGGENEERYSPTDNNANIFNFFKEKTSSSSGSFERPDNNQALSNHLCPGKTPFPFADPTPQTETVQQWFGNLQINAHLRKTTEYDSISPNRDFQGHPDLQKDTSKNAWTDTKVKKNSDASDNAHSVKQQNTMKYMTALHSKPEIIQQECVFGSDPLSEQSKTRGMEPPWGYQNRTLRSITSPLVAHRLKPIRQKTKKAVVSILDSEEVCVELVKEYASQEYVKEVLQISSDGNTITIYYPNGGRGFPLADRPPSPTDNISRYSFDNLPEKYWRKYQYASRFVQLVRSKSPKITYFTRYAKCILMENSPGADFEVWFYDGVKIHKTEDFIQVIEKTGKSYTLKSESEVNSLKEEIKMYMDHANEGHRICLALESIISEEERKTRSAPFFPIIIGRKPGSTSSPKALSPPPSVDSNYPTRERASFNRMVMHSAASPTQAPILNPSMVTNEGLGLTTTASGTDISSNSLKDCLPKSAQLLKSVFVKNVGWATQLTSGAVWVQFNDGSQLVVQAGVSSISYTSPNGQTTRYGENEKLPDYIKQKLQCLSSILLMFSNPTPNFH
In short: as §1

[3] = biological target: T3, ~100 representative kinases (Homo sapiens, UniProt Q16566); settings: Protein CAMK4; average of three replicates
T3 construct: Recombinant protein kinase domains with a concentration of 2 μM
T3 sequence (Q16566 1-473): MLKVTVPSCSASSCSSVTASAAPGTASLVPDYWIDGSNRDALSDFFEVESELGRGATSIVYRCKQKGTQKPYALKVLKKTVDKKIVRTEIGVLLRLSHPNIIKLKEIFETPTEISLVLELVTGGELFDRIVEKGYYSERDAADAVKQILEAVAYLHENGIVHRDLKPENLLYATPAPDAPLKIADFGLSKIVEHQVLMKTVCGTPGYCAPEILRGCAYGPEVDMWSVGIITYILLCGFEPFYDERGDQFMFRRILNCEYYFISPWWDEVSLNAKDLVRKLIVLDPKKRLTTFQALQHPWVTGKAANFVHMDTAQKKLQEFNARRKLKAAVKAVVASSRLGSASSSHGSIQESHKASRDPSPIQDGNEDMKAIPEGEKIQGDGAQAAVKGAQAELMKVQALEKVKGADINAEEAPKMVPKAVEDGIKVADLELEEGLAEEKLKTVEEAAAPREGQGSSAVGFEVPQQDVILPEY
In short: as §1

Compound | dTm [1] | dTm [2] | dTm [3]
Cc1cc(NC(=O)C2(C(=O)Nc3ccc(F)cc3)CC2)cc(-c2c[nH]c3ncnc(N4CCOCC4)c23)c1 [Compound 6] | 0.87 K | 7.27 K | 1.41 K
O=C(Nc1cc(F)cc(Br)c1)C1(C(=O)Nc2cccc(-c3c[nH]c4ncnc(N5CCOCC5)c34)c2)CC1 [Compound 27] | 2.67 K | 0.00 K | 0.92 K
CCNc1nc(Nc2cc(F)c(C(=O)N3CCOCC3)cc2OC)ncc1C(F)(F)F [GNE-7915] | -1.14 K | 1.52 K | 0.15 K
Cc1cc(F)ccc1NC(=O)C1(C(=O)Nc2cccc(-c3c[nH]c4ncnc(N5CCOCC5)c34)c2)CC1 [Compound 24] | -0.10 K | 7.17 K | 0.42 K
CCSc1nc(NC)c2c(-c3cccc(NC(=O)Nc4cc(C(C)(C)C)nn4-c4ccc(C)cc4)c3)c[nH]c2n1 [Compound 32] | -0.60 K | 0.48 K | 0.28 K
O=C(Nc1ccc(F)cc1)C1(C(=O)Nc2cccc(-c3c[nH]c4ncnc(N5CCOCC5)c34)c2)CC1 [Compound 2] | 0.13 K | 8.51 K | 2.18 K
COc1cc(NC(=O)C2(C(=O)Nc3cccc(-c4c[nH]c5ncnc(N6CCOCC6)c45)c3)CC2)ccc1F [Compound 21] | -0.32 K | 10.46 K | 2.09 K
O=C(Nc1cccc(-c2c[nH]c3ncnc(N4CCOCC4)c23)c1)C1(C(=O)Nc2cc(Br)c(F)cc2F)CC1 [Compound 25] | 1.93 K | 0.00 K | 1.53 K
CNC(=O)c1cc(Oc2ccc(NC(=O)Nc3cc(C(C)(C)C)nn3-c3ccc4ncccc4c3)c(F)c2)ccn1 [Rebastinib, reference compound] | 1.88 K | 6.17 K | 1.22 K
COc1cc2c(Oc3ccc(NC(=O)C4(C(=O)Nc5ccc(F)cc5)CC4)cc3F)ccnc2cc1OCCCN1CCOCC1 [Foretinib, reference compound] | 0.26 K | 16.61 K | –
Cc1ccc(C(=O)Nc2ccc(CN3CCN(C)CC3)c(C(F)(F)F)c2)cc1C#Cc1cnc2cccnn12 [Ponatinib, reference compound] | – | – | 1.32 K
O=C(Nc1cccc(-c2c[nH]c3ncnc(N4CCOCC4)c23)c1)C1(C(=O)Nc2ccc(F)c(Br)c2F)CC1 [Compound 26] | 1.97 K | 5.97 K | 1.91 K
C[C@@H]1CN(c2cc(-c3n[nH]c4ccc(OC5(C)CC5)cc34)ncn2)C[C@H](C)O1 [MLi2] | -1.36 K | 3.07 K | 1.22 K
COc1cc(S(C)(=O)=O)ccc1Nc1nc(N(C)C)c2c(Cl)c[nH]c2n1 [Compound 37] | -0.21 K | 4.57 K | -0.60 K
O=C(Nc1cccc(-c2c[nH]c3ncnc(N4CCOCC4)c23)c1)C1(C(=O)Nc2ccc(F)cc2F)CC1 [Compound 23] | 0.18 K | 7.20 K | 0.57 K
O=C(Nc1cccc(-c2c[nH]c3ncnc(N4CCOCC4)c23)c1)C1(C(=O)Nc2cccc3c2CCC3)CC1 [Compound 11] | 1.49 K | 7.44 K | 2.09 K
O=C(Nc1ccccc1)C1(C(=O)Nc2cccc(-c3c[nH]c4ncnc(N5CCOCC5)c34)c2)CC1 [Compound 12] | -0.42 K | 6.79 K | 1.57 K
CN[C@@H]1C[C@H]2O[C@@](C)([C@@H]1OC)n1c3ccccc3c3c4c(c5c6ccccc6n2c5c31)C(=O)NC4 [Staurosporine] | – | 19.68 K | 8.45 K

Further lines, results first:

dTm [1] | dTm [2] | dTm [3] | Compound
-0.72 K | 7.55 K | 1.05 K | Cc1ccc(NC(=O)C2(C(=O)Nc3cccc(-c4c[nH]c5ncnc(N6CCOCC6)c45)c3)CC2)cc1 [Compound 14]
-0.96 K | 4.53 K | -0.20 K | COc1ccc(NC(=O)C2(C(=O)Nc3cccc(-c4c[nH]c5ncnc(N6CCOCC6)c45)c3)CC2)cc1 [Compound 16]
-1.99 K | 0.26 K | -1.02 K | Cc1ccc(-n2nc(C(C)(C)C)cc2NC(=O)Nc2cccc(-c3c[nH]c4nc(Cl)nc(N5CCOCC5)c34)c2)cc1 [Compound 30]
-0.65 K | 9.01 K | 3.78 K | O=C(Nc1ccc(Cl)cc1)C1(C(=O)Nc2cccc(-c3c[nH]c4ncnc(N5CCOCC5)c34)c2)CC1 [Compound 13]
1.91 K | 9.02 K | 1.51 K | CC(C)(C)c1cccc(NC(=O)C2(C(=O)Nc3cccc(-c4c[nH]c5ncnc(N6CCOCC6)c45)c3)CC2)c1 [Compound 22]
0.08 K | 4.74 K | 2.94 K | Cc1ccc(-n2nc(C(C)(C)C)cc2NC(=O)Nc2cccc(-c3c[nH]c4ncnc(N5CCOCC5)c34)c2)cc1 [Compound 29]
-1.48 K | 8.52 K | 1.59 K | O=C(Nc1cccc(-c2c[nH]c3ncnc(N4CCOCC4)c23)c1)c1cccn(-c2ccc(F)cc2)c1=O [Compound 4]
-0.75 K | 9.77 K | 2.51 K | CCc1ccc(NC(=O)C2(C(=O)Nc3cccc(-c4c[nH]c5ncnc(N6CCOCC6)c45)c3)CC2)cc1 [Compound 15]
-0.70 K | 0.19 K | -0.77 K | CC(=O)N1CCN(c2nc(Cl)nc3[nH]cc(-c4cccc(NC(=O)Nc5cc(C(C)(C)C)nn5-c5ccc(C)cc5)c4)c23)CC1 [Compound 31]
